In brackets after ≈: the same amount, converted by molar mass. Where two headings read alike, the source gives them in different places.
Columns and labels:
P. falciparum strain W2 = assay: labeled hypoxanthine susceptibility assay, P. falciparum W2; assay type: cell-based, Plasmodium falciparum; conditions: Plasmodium falciparum
Method: (§1) The in vitro activities of quinoline methanols against P. falciparum strains W2, D6, TM91C235, and TM90C2A were evaluated using the traditional labeled hypoxanthine assay of Desjardins et al as modified by Milhous et al. These four P. falciparum strains were selected since they have various levels of resistance to conventional anti-malarials.

P. falciparum strain D6 = assay: labeled hypoxanthine susceptibility assay, P. falciparum D6; assay type: cell-based, Plasmodium falciparum; conditions: for IC90: Plasmodium falciparum
Method: as §1

[1] = system: P. falciparum strain TM91C235; assay: labeled hypoxanthine susceptibility assay, P. falciparum TM91C235; assay type: cell-based, Plasmodium falciparum; conditions: Plasmodium falciparum
Method: as §1

[2] = system: P. falciparum strain TM90C2A; assay: labeled hypoxanthine susceptibility assay, P. falciparum TM90C2A; assay type: cell-based, Plasmodium falciparum; conditions: for IC90: Plasmodium falciparum, TM90C2A; for CSI (C2A/W2): ratio of IC90 C2A to IC90 W2
Method: as §1

[3] = system: rodent macrophage (RAW) cell line; assay: cells; conditions: Mus musculus, Macrophage, read-out: Macrophage IC50
in vitro = conditions: mouse
Method: (§2) General cytotoxicity was assessed by first determining LC50 's against a rodent macrophage (RAW) cell line using the 3-(4,5-dimethylthiazole-2-yl)-2,5-diphenyltetrazolium bromide (MTT) assay as described in one of our earlier studies. This screen was conducted to identify compounds that may require de-selection due to generalized toxicity. […] In vitro neurocytotoxicity was assessed by determining LC50s against primary mouse neurons using the MTT assay as described previously. Inhibition of the A2A and A1 receptors was determined at 200 nM in duplicate by Caliper Biosciences (Hanover, Maryland).

A2A receptor = target: T1, A2A receptor (Homo sapiens, UniProt P29274); assay: inhibition of the A2A receptor at 200 nM; assay type: binding; conditions: 200 nM, duplicate; read-out: % A2A inhibition at 200 nM
T1 construct: Caliper Biosciences (contract screen)
T1 sequence (P29274 whole entry): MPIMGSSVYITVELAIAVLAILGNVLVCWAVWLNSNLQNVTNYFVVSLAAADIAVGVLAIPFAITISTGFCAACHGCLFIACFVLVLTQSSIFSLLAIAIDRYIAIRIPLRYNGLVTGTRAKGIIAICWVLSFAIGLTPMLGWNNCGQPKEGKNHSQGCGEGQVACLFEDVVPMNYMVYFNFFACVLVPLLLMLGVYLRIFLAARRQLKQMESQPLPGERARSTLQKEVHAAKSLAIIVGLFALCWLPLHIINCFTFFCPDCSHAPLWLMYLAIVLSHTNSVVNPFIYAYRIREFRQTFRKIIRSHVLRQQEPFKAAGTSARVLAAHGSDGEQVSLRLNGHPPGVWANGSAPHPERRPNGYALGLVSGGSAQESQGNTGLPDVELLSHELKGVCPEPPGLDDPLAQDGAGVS
Method: as §2

A1 receptor = target: T2, A1 receptor (Homo sapiens, UniProt P30542); assay: inhibition of the A1 receptor at 200 nM; assay type: binding; conditions: duplicate
T2 construct: Caliper Biosciences (contract screen)
T2 sequence (P30542 1-326): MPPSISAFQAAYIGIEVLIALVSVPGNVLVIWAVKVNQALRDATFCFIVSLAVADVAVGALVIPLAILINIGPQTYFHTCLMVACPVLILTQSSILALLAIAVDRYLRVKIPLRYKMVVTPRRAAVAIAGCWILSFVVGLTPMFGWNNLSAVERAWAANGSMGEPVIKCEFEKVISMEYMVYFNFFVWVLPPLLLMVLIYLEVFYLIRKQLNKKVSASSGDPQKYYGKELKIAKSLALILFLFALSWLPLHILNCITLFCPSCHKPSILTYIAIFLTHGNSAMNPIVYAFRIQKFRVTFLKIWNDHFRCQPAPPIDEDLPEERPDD
Method: as §2

[4] = metabolic stability in mouse liver microsomes; assay type: in vitro ADME; conditions: for half-life at 1 μM: pH 7.4, mouse liver microsomes, read-out: Half-life in mouse micro
Method: (§3) Interesting compounds were also submitted for drug-drug interaction and metabolic stability assays. Low IC50s against specific cytochrome P450 isoforms may indicate the potential for a harmful drug interaction to occur in vivo with substrates of that isoform. A lack of metabolic stability in vitro may indicate potential metabolic instability in vivo, and, therefore, a shorter half-life. Drug interaction potential was evaluated in vitro using BD Gentest (Franklin Lakes, NJ) CYP450 inhibition kits as recommended by the manufacturer. Metabolic stability assessments were conducted using in vitro liver microsomes. […] The reaction is started with the addition of 1 U/mL glucose-6-phosphate dehydrogenase G6PD. The mixture is incubated on a shaking platform at 37°C, and aliquots are taken and quenched with the addition of an equal volume of cold acetonitrile at 0, 10, 20, 30, and 60 min. Samples are centrifuged at 3700 rpm for […] at 20°C to remove debris. Sample quantification is carried out by LC/MS, and metabolic half-life is calculated by log plots of the total ion chromatograph area remaining.

CYP450 1A2 = target: T3, CYP450 1A2 (Homo sapiens, UniProt P05177); assay: CYP450 inhibition kit (drug-drug interaction), 1A2; assay type: biochemical
T3 construct: purchased BD Gentest (Franklin Lakes, NJ)
T3 sequence (P05177 1-516): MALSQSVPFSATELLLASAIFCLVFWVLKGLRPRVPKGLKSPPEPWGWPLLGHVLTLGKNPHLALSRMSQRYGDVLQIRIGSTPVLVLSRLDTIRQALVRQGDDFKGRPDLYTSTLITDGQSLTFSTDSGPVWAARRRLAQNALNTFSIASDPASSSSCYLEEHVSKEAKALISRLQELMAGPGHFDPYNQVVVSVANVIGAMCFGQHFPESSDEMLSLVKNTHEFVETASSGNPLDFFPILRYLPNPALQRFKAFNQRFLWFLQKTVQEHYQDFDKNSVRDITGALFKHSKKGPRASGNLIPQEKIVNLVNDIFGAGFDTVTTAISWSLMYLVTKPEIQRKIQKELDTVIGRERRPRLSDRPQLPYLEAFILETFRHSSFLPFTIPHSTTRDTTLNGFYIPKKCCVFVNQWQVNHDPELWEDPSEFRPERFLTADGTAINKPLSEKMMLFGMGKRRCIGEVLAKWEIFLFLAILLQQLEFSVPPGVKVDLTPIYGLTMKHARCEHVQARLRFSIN
Method: as §3, with “Low” for “Interesting compounds were also submitted for drug-drug interaction and metabolic stability assays. Low”

CYP450 2C9 = target: T4, CYP450 2C9 (Homo sapiens, UniProt P11712); assay: CYP450 inhibition kit (drug-drug interaction), 2C9; assay type: biochemical
T4 construct: purchased BD Gentest (Franklin Lakes, NJ)
T4 sequence (P11712 whole entry): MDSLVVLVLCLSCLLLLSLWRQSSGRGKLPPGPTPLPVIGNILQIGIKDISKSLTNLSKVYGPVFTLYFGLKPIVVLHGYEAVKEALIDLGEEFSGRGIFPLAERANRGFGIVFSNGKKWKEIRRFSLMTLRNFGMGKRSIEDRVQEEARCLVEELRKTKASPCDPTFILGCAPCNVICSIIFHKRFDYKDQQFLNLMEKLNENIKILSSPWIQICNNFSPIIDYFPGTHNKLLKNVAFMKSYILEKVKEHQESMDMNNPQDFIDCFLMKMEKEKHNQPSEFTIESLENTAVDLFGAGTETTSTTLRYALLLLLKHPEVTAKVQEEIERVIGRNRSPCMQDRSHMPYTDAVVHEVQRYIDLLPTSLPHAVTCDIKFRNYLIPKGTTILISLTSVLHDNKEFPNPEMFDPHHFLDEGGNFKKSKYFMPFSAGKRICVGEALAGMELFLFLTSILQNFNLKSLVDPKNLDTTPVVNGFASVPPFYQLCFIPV
Method: as §3, with “Low” for “Interesting compounds were also submitted for drug-drug interaction and metabolic stability assays. Low”

CYP450 2C19 = target: T5, CYP450 2C19 (Homo sapiens, UniProt P33261); assay: CYP450 inhibition kit (drug-drug interaction), 2C19; assay type: biochemical
T5 construct: purchased BD Gentest (Franklin Lakes, NJ)
T5 sequence (P33261 whole entry): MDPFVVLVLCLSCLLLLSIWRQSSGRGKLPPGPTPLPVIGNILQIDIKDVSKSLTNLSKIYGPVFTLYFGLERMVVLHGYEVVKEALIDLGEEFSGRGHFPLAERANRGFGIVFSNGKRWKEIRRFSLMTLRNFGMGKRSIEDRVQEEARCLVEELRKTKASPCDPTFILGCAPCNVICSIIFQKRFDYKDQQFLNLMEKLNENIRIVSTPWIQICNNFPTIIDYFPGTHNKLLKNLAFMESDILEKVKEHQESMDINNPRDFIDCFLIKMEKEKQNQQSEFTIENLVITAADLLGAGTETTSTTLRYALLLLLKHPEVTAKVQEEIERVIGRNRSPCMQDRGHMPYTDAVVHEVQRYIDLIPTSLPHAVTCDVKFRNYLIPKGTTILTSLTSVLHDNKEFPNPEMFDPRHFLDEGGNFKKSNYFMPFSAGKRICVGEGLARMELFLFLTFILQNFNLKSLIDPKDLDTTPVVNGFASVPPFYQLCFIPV
Method: as §3, with “Low” for “Interesting compounds were also submitted for drug-drug interaction and metabolic stability assays. Low”

CYP450 2D6 = target: T6, CYP450 2D6 (Homo sapiens, UniProt P10635); assay: CYP450 inhibition kit (drug-drug interaction), 2D6; assay type: biochemical
T6 construct: purchased BD Gentest (Franklin Lakes, NJ)
T6 sequence (P10635 whole entry): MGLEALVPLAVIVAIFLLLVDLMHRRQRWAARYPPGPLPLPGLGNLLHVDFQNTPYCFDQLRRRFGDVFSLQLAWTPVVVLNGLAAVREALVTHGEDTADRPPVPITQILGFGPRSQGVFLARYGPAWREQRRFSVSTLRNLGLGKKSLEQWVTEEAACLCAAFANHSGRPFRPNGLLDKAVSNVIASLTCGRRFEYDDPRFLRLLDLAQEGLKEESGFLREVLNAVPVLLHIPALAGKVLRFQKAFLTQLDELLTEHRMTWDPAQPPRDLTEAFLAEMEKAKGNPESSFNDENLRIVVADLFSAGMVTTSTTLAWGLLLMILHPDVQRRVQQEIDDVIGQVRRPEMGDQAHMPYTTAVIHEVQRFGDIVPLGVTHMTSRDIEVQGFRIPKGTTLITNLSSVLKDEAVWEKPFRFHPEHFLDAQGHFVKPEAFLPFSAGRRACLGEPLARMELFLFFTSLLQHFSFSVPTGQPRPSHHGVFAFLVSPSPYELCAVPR
Method: as §3, with “Low” for “Interesting compounds were also submitted for drug-drug interaction and metabolic stability assays. Low”

[5] = D6, read-out: IC90 Pf D6, P. falciparum D6, mefloquine: historical mean +/- SD (n)
[6] = D6, read-out: PF D6 IC90, P. falciparum D6
[7] = read-out: Pf C2A IC90 nM values calculated using MW in Column C

Row | Structure (SMILES) | IC90 (P. falciparum strain W2; W2, read-out: IC90 Pf W2) | IC90 (P. falciparum strain W2; W2, read-out: PF W2 IC90) | IC90 (P. falciparum strain D6; [5]) | IC90 (P. falciparum strain D6; [6]) | IC90 ([1]; read-out: IC90 Pf C235) | IC90 ([1]; read-out: PF C235 IC90) | IC90 ([2]; read-out: IC90 Pf C2A) | IC90 ([2]; read-out: IC90 PfC2A) | IC90 ([2]; read-out: PF C2A IC90) | IC90 [2, 7] | CSI (C2A/W2) [2] | IC50 [3] | CC50 (in vitro) | inhibition at 0.2 µM (A2A receptor) | inhibition at 0.2 µM (A1 receptor) | half-life at 1 μM [4] | IC50 (CYP450 1A2) | IC50 (CYP450 2C9) | IC50 (CYP450 2C19) | IC50 (CYP450 2D6) | other results
1 | CNCC(O)c1cc(C(F)(F)F)nc2c(C(F)(F)F)cccc12 (stereo not drawn) [WR308245] | 0.017 µg/mL (≈ 0.0503 µM) | 0.0168 µg/mL (≈ 0.0495 µM) | 0.045 µg/mL (≈ 0.133 µM) | 0.0452 µg/mL (≈ 0.134 µM) | 0.058 µg/mL (≈ 0.171 µM) | 0.0576 µg/mL (≈ 0.17 µM) | 0.08 µg/mL | 236 nM | 0.0798 µg/mL | 236 nM | 4.8 | 40.4 µM | > 120 µM | 0% | 0% | > 1 h | 1.8 µM | > 40 µM | 33 µM | 7.4 µM | –
2 | CC(C)NCC(O)c1cc(C(F)(F)F)nc2c(C(F)(F)F)cccc12 (stereo not drawn) [WR308257] | 0.0047 µg/mL (≈ 0.0128 µM) | 0.00465 µg/mL (≈ 0.0127 µM) | 0.023 µg/mL (≈ 0.0628 µM) | 0.0232 µg/mL (≈ 0.0634 µM) | 0.023 µg/mL (≈ 0.0628 µM) | 0.0234 µg/mL (≈ 0.0638 µM) | 0.039 µg/mL | 107 nM | 0.0392 µg/mL | 107 nM | 8.4 | 14.2 µM | > 120 µM | 17% | 79% | > 1 h | 3.9 µM | 37 µM | 26 µM | 1.9 µM | –
3 | CSCCCNCC(O)c1cc(C(F)(F)F)nc2c(C(F)(F)F)cccc12 (stereo not drawn) [WR308278] | 0.0097 µg/mL (≈ 0.0235 µM) | 0.00969 µg/mL (≈ 0.0235 µM) | 0.036 µg/mL (≈ 0.0873 µM) | 0.0363 µg/mL (≈ 0.0881 µM) | 0.039 µg/mL (≈ 0.0946 µM) | 0.0393 µg/mL (≈ 0.0953 µM) | 0.054 µg/mL | 132 nM | 0.0544 µg/mL | 132 nM | 5.6 | 20.9 µM | > 120 µM | 1% | 9.4% | 0.167 h | 3.5 µM | 6.3 µM | 3.6 µM | 1.4 µM | –
4 | OC(CNCCNCc1ccccc1)c1cc(C(F)(F)F)nc2c(C(F)(F)F)cccc12 (stereo not drawn) [WR308396] | 0.0062 µg/mL (≈ 0.0136 µM) | – | 0.03 µg/mL (≈ 0.0656 µM) | 0.0293 µg/mL (≈ 0.0639 µM) | 0.04 µg/mL (≈ 0.0874 µM) | 0.0401 µg/mL (≈ 0.0877 µM) | 0.048 µg/mL | 105 nM | 0.048 µg/mL | 105 nM | 7.7 | 18.1 µM | 52 µM | 0% | 2.9% | > 1 h | 5.4 µM | 14 µM | 5.8 µM | 0.7 µM | IC90 Pf D6 (P. falciparum strain D6; P. falciparum D6, mefloquine: historical mean +/- SD (n)): 0.029 µg/mL (≈ 0.0634 µM); HL in Microsomes ([4]; Figure 3, species of microsomes not given): > 60 min

From article PMC2833169, “Anti-malarial activity of a non-piperidine library of next-generation quinoline methanols” (Malaria Journal, 2010)
